In ChEMBL document CHEMBL5385907, “Proline-Hinged α-Helical Peptides Sensitize Gram-Positive Antibiotics, Expanding Their Physicochemical Properties to Be Used as Gram-Negative Antibiotics” (J Med Chem, 2024):
Converted amounts (≈) assume the structure as drawn. Residues, ends and D or L forms follow the SMILES beside them.

How the values were obtained:
[1] = Hemolytic activity in human blood assessed as hemolysis incubated for 6 hrs by microplate reader analysis; assay type: toxicity, tissue-based
[2] = Hydrophobicity of the compound assessed as retention time by reversed-phase HPLC analysis; assay type: physicochemical
Acinetobacter baumannii = assay: Antibacterial activity against Acinetobacter baumannii ATCC 17978 assessed as inhibition of bacterial growth incubated for 18 hrs by two fold serial dilution assay; assay type: functional
Escherichia coli = assay: Antibacterial activity against Escherichia coli ATCC 25922 assessed as inhibition of bacterial growth incubated for 18 hrs by two fold serial dilution assay; assay type: functional
Klebsiella pneumoniae = assay: Antibacterial activity against Klebsiella pneumoniae ATCC 700603 assessed as inhibition of bacterial growth incubated for 18 hrs by two fold serial dilution assay; assay type: functional

| SMILES | MHC10 [1] [µM] | Retention_time [2] [min] | MIC (Acinetobacter baumannii) [µM] | MIC (Escherichia coli) [µM] | MIC (Klebsiella pneumoniae) [µM] |
| --- | --- | --- | --- | --- | --- |
| CCCC(=O)N[C@@H](CC(N)=O)C(=O)N[C@@H](Cc1c[nH]cn1)C(=O)N[C@@H](CCCCN)C(=O)N[C@@H](CCCCN)C(=O)N[C@@H](C)C(=O)N[C@@H](CC(C)C)C(=O)N[C@@H](CCCCN)C(=O)N[C@@H](CC(C)C)C(=O)N[C@@H](C)C(=O)N[C@@H](CCCCN)C(=O)N[C@@H](CCCCN)C(=O)N1CCC[C@H]1C(=O)N[C@@H](CC(C)C)C(=O)N[C@@H](CCCCN)C(=O)N[C@@H](CC(C)C)C(=O)N[C@@H](CC(C)C)C(=O)N[C@@H](CCCCN)C(=O)N[C@@H](CS)C(N)=O (HELM PEPTIDE1{[CCCC(=O)[*:2]].N.H.K.K.A.L.K.L.A.K.K.P.L.K.L.L.K.C.[am]}$$$$V2.0) | > 160 | 16.1 | > 80 | > 80 | > 80 |
| CCCCCC(=O)N[C@@H](CCCCN)C(=O)N[C@@H](CCCCN)C(=O)N[C@@H](C)C(=O)N[C@@H](CC(C)C)C(=O)N[C@@H](CCCCN)C(=O)N[C@@H](CC(C)C)C(=O)N[C@@H](C)C(=O)N[C@@H](CCCCN)C(=O)N[C@@H](CCCCN)C(=O)N1CCC[C@H]1C(=O)N[C@@H](CC(C)C)C(=O)N[C@@H](CCCCN)C(=O)N[C@@H](CC(C)C)C(=O)N[C@@H](CC(C)C)C(=O)N[C@@H](CCCCN)C(N)=O (HELM PEPTIDE1{[CCCCCC(=O)[*:2]].K.K.A.L.K.L.A.K.K.P.L.K.L.L.K.[am]}$$$$V2.0) | > 160 | 17.1 | 80 (≈ 145 µg/mL) | > 80 | > 80 |
| CCCCCCCCCC(=O)N[C@@H](CCCCN)C(=O)N[C@@H](CCCCN)C(=O)N[C@@H](C)C(=O)N[C@@H](CC(C)C)C(=O)N[C@@H](CCCCN)C(=O)N[C@@H](CC(C)C)C(=O)N[C@@H](C)C(=O)N[C@@H](CCCCN)C(=O)N[C@@H](CCCCN)C(=O)N1CCC[C@H]1C(=O)N[C@@H](CC(C)C)C(=O)N[C@@H](CCCCN)C(=O)N[C@@H](CC(C)C)C(=O)N[C@@H](CC(C)C)C(=O)N[C@@H](CCCCN)C(N)=O (HELM PEPTIDE1{[CCCCCCCCCC(=O)[*:2]].K.K.A.L.K.L.A.K.K.P.L.K.L.L.K.[am]}$$$$V2.0) | > 160 | 19.4 | 5 (≈ 9.37 µg/mL) | 40 (≈ 74.9 µg/mL) | > 80 |
| CCCCCCCCCCCC(=O)N[C@@H](CCCCN)C(=O)N[C@@H](CCCCN)C(=O)N[C@@H](C)C(=O)N[C@@H](CC(C)C)C(=O)N[C@@H](CCCCN)C(=O)N[C@@H](CC(C)C)C(=O)N[C@@H](C)C(=O)N[C@@H](CCCCN)C(=O)N[C@@H](CCCCN)C(=O)N1CCC[C@H]1C(=O)N[C@@H](CC(C)C)C(=O)N[C@@H](CCCCN)C(=O)N[C@@H](CC(C)C)C(=O)N[C@@H](CC(C)C)C(=O)N[C@@H](CCCCN)C(N)=O (HELM PEPTIDE1{[CCCCCCCCCCCC(=O)[*:2]].K.K.A.L.K.L.A.K.K.P.L.K.L.L.K.[am]}$$$$V2.0) | 160 | 20.4 | 2.5 (≈ 4.75 µg/mL) | 10 (≈ 19 µg/mL) | 80 (≈ 152 µg/mL) |
| CCCCCCCCCCCCCC(=O)N[C@@H](CCCCN)C(=O)N[C@@H](CCCCN)C(=O)N[C@@H](C)C(=O)N[C@@H](CC(C)C)C(=O)N[C@@H](CCCCN)C(=O)N[C@@H](CC(C)C)C(=O)N[C@@H](C)C(=O)N[C@@H](CCCCN)C(=O)N[C@@H](CCCCN)C(=O)N1CCC[C@H]1C(=O)N[C@@H](CC(C)C)C(=O)N[C@@H](CCCCN)C(=O)N[C@@H](CC(C)C)C(=O)N[C@@H](CC(C)C)C(=O)N[C@@H](CCCCN)C(N)=O (HELM PEPTIDE1{[CCCCCCCCCCCCCC(=O)[*:2]].K.K.A.L.K.L.A.K.K.P.L.K.L.L.K.[am]}$$$$V2.0) | 53 | 21.7 | 1.3 (≈ 2.51 µg/mL) | 5 (≈ 9.65 µg/mL) | 20 (≈ 38.6 µg/mL) |
| NCC[C@H](O)C(=O)N[C@@H]1C[C@H](N)[C@@H](O[C@H]2O[C@H](CN)[C@@H](O)[C@H](O)[C@H]2O)[C@H](O)[C@H]1O[C@H]1O[C@H](CO)[C@@H](O)[C@H](N)[C@H]1O [AMIKACIN] |  |  | 2.5 (≈ 1.46 µg/mL) | 5 (≈ 2.93 µg/mL) | 2.5 (≈ 1.46 µg/mL) |
